Results as given in ChEMBL document CHEMBL1143643, “Synthesis and evaluation of antiplatelet activity of trihydroxychalcone derivatives” (Bioorg Med Chem Lett, 2005).

Key:
[1] = species on record: Oryctolagus cuniculus; test: In vitro inhibitory effects on collagen induced rabbit platelet aggregation upon incubation at 37 degree C for 4 minutes; format: functional
[2] = species on record: Oryctolagus cuniculus; test: In vitro inhibitory effects on arachidonic acid induced rabbit platelet aggregation upon incubation at 37 degree C for 4 minutes; format: functional

| IC50 [1] [µM] | IC50 [2] [µM] | SMILES |
| --- | --- | --- |
| 37.4 | 28.5 | COc1cc(/C=C/C(=O)c2c(O)cc(O)cc2O)ccc1OCc1ccccc1 |
| > 100 | > 100 | CN(C)c1ccc(/C=C/C(=O)c2c(O)cc(O)cc2O)cc1 |
